Patent publication US20250064941A1, “SIGLEC LIGANDS, CONJUGATES, AND METHODS OF USE THEREOF” (Osprey Biopharmaceuticals, Inc., priority 2023, published 2025)
pKd: −log10 of the molar value.

Tests used:
[1] = biological target: T1, mouse Siglec-2-Fc-Avi (CD22) (Mus musculus, UniProt P35329); test: SPR binding affinity to mouse CD22; details: steady-state analysis
T1 construct: made in house
T1 sequence (P35329 22-708 limits assumed): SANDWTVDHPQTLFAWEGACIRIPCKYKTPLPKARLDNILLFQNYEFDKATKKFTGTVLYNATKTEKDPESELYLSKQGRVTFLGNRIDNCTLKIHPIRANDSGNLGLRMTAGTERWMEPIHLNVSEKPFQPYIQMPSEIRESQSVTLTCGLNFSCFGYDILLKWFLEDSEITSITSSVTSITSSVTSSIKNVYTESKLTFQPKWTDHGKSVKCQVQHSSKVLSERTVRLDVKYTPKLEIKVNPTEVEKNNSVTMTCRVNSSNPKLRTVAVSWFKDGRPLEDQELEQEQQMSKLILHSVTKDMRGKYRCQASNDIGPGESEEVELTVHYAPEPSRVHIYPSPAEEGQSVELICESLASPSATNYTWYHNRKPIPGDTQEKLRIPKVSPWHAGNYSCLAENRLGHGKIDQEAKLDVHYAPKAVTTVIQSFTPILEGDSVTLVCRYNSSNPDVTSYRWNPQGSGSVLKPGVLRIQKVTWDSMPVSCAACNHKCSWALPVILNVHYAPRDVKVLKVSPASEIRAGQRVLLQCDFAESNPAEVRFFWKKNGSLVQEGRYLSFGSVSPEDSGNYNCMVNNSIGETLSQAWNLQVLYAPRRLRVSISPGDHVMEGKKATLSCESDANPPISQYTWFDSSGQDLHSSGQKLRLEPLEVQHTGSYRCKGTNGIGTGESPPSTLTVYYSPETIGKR
Outline: (§1)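 Steady-state fits gave the affinities. Before capture on a streptavidin surface, biotinylated CD22 had native sialic acids stripped (SialoExo, 4 hours, 37° C.). Running buffer: 10 mM HEPES pH 7.5, 150 mM NaCl, 0.05% Tween-20, 1% DMSO, with DMSO solvent correction.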

[2] = biological target: T2, human Siglec-2/CD22 protein (Homo sapiens, UniProt P20273); test: SPR binding affinity to human CD22; details: steady-state analysis
T2 construct: purchased Acro Biosystems SI2-H82E3
T2 sequence (P20273 20-847): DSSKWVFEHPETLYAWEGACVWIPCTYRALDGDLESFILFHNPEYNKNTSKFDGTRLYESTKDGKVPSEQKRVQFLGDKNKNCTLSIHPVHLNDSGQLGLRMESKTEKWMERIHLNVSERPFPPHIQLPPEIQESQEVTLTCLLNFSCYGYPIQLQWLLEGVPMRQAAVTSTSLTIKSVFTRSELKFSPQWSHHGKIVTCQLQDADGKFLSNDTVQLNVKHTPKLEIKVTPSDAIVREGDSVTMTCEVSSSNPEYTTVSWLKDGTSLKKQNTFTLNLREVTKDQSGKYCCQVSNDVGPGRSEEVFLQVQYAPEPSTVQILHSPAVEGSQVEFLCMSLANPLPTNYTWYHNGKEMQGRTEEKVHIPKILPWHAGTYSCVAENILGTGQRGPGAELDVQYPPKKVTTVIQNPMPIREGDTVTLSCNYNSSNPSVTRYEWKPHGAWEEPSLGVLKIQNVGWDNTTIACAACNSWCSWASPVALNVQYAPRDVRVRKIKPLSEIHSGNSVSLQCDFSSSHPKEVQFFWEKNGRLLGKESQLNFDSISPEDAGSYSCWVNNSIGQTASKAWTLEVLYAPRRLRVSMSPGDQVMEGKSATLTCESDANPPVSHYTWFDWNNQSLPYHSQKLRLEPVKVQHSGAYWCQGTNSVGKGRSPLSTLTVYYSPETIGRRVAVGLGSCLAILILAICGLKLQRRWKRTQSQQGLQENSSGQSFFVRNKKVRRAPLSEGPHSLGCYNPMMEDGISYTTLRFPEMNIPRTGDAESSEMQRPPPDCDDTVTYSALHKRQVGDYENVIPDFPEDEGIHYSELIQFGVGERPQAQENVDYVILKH
Outline: as §1

cynomolgus Siglec-2/CD22 = cynomolgus Siglec-2/CD22 (Macaca fascicularis, UniProt A0A2K5WCZ6); test: biochemical; assay type: binding; details: SPR, steady-state analysis; read-out: Affinity cyno CD22
Outline: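 Compound binding measured by steady-state SPR analysis, 120 s dissociation, in HEPES-NaCl-Tween buffer pH 7.5 containing 1% DMSO, DMSO solvent-corrected. Surface: cyno CD22, sialic acids first stripped by SialoExo for 4 h at 37° C., then amine-coupled onto CM5.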

Sequence of cynomolgus Siglec-2/CD22 (A0A2K5WCZ6 entry or part of it): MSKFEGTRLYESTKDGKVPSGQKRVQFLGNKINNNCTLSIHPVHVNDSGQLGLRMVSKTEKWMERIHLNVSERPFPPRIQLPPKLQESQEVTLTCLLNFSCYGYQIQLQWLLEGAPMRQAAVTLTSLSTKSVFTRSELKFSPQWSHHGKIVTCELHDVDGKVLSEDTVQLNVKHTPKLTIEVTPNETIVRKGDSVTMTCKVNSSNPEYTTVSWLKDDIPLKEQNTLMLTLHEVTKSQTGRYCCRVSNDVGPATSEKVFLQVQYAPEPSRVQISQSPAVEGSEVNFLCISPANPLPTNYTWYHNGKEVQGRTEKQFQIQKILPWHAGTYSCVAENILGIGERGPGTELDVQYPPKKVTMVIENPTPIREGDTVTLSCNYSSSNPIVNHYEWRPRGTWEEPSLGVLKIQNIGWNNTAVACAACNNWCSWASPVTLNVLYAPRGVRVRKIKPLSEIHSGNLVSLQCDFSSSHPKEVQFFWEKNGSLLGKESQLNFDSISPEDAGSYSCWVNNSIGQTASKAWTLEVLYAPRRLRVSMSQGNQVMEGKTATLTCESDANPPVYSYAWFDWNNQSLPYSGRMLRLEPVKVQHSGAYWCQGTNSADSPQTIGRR

Compound | pKd [1] | pKd [2] | pKd (cynomolgus Siglec-2/CD22)
C#CCCCCNC(=O)CCCCCCO[C@]1(C(=O)O)C[C@H](O)[C@@H](NC(=O)CO)[C@H]([C@H](O)[C@H](O)CNC(=O)Cc2ccc(Cl)cc2)O1 [Compound 96, (2R,4S,5R,6R)-6-((1R,2R)-3-(2-(4-chlorophenyl)acetamido)-1,2-dihydroxypropyl)-2-((7-(hex-5-yn-1-ylamino)-7-oxoheptyl)oxy)-4-hydroxy-5-(2-hydroxyacetamido)tetrahydro-2H-pyran-2-carboxylic acid] | > 6.00 | > 6.00 | > 6.00
C#Cc1ccc(CO[C@]2(C(=O)O)C[C@H](O)[C@@H](NC(=O)CO)[C@H]([C@H](O)[C@H](O)CNC(=O)Cc3cccc(O)c3)O2)cc1 [Compound 142, (2R,4S,5R,6R)-6-((1R,2R)-1,2-dihydroxy-3-(2-(3-hydroxyphenyl)acetamido)propyl)-2-((4-ethynylbenzyl)oxy)-4-hydroxy-5-(2-hydroxyacetamido)tetrahydro-2H-pyran-2-carboxylic acid] | > 6.00 | > 6.00 | > 6.00
C#CCOCCCCCCO[C@]1(C(=O)O)C[C@H](O)[C@@H](NC(=O)CO)[C@H]([C@H](O)[C@H](O)CNC(=O)Cc2ccc(Cl)c(F)c2)O1 [Compound 130, (2R,4S,5R,6R)-6-((1R,2R)-3-(2-(4-chloro-3-fluorophenyl)acetamido)-1,2-dihydroxypropyl)-4-hydroxy-5-(2-hydroxyacetamido)-2-((6-(prop-2-yn-1-yloxy)hexyl)oxy)tetrahydro-2H-pyran-2-carboxylic acid] | 5.00 to 6.00 | > 6.00 | > 6.00
C#CCOc1ccc(CO[C@]2(C(=O)O)C[C@H](O)[C@@H](NC(=O)CO)[C@H]([C@H](O)[C@H](O)CNC(=O)Cc3cccc(F)c3)O2)cc1 [Compound 167, (2R,4S,5R,6R)-6-((1R,2R)-3-(2-(3-fluorophenyl)acetamido)-1,2-dihydroxypropyl)-4-hydroxy-5-(2-hydroxyacetamido)-2-((4-(prop-2-yn-1-yloxy)benzyl)oxy)tetrahydro-2H-pyran-2-carboxylic acid] | 5.00 to 6.00 | > 6.00 | 5.00 to 6.00
O=C(O)CCOCCOCCOCCOCCNc1c(NCCCCCCO[C@]2(C(=O)O)C[C@H](O)[C@@H](NC(=O)CO)[C@H]([C@H](O)[C@H](O)CNC(=O)Cc3ccc(Cl)cc3)O2)c(=O)c1=O [Compound 154, (2R,4S,5R,6R)-2-((6-((2-((14-carboxy-3,6,9,12-tetraoxa-tetradecyl)amino)-3,4-dioxocyclobut-1-en-1-yl)amino)hexyl)oxy)-6-((1R,2R)-3-(2-(4-chlorophenyl)acetamido)-1,2-dihydroxypropyl)-4-hydroxy-5-(2-hydroxyacetamido) tetrahydro-2H-pyran-2-carboxylic acid] | > 6.00 | > 6.00 | > 6.00
CC(=O)NCCOCCOCCOCCOCCNC(=O)CCCCCO[C@]1(C(=O)O)C[C@H](O)[C@@H](NC(=O)CO)[C@H]([C@H](O)[C@H](O)CNC(=O)Cc2ccc(Cl)cc2)O1 [Compound 228, (2R,4S,5R,6R)-6-((1R,2R)-3-(2-(4-chlorophenyl)acetamido)-1,2-dihydroxypropyl)-2-((2,19-dioxo-6,9,12,15-tetraoxa-3,18-diazatetracosan-24-yl)oxy)-4-hydroxy-5-(2-hydroxyacetamido)tetrahydro-2H-pyran-2-carboxylic acid] | 5.00 to 6.00 | 5.00 to 6.00 | > 6.00
C#CCOCCCCCCO[C@]1(C(=O)O)C[C@H](O)[C@@H](NCC(N)=O)[C@H]([C@H](O)[C@H](O)CNC(=O)Cc2ccc(Cl)cc2)O1 [Compound 182, (2R,4S,5R,6R)-5-((2-amino-2-oxoethyl)amino)-6-((1R,2R)-3-(2-(4-chlorophenyl)acetamido)-1,2-dihydroxypropyl)-4-hydroxy-2-((6-(prop-2-yn-1-yloxy)hexyl)oxy)tetrahydro-2H-pyran-2-carboxylic acid] | 5.00 to 6.00 | 5.00 to 6.00 | 5.00 to 6.00
C#CCOCCOCCO[C@]1(C(=O)O)C[C@H](O)[C@@H](NC(=O)CO)[C@H]([C@H](O)[C@H](O)CNC(=O)c2ccc(O)cc2)O1 [Compound 198, (2R,4S,5R,6R)-6-((1R,2R)-1,2-dihydroxy-3-(4-hydroxybenzamido)propyl)-4-hydroxy-5-(2-hydroxyacetamido)-2-(2-(2-(prop-2-yn-1-yloxy)ethoxy)ethoxy)tetrahydro-2H-pyran-2-carboxylic acid] | < 5.00 | < 5.00 | < 5.00
C#CCCCCCCO[C@]1(C(=O)O)C[C@H](O)[C@@H](NC(=O)CO)[C@H]([C@H](O)[C@H](O)CNC(=O)Cc2ccc(C(F)F)cc2)O1 [Compound 212, (2R,4S,5R,6R)-6-((1R,2R)-3-(2-(4-(difluoromethyl)phenyl)acetamido)-1,2-dihydroxypropyl)-4-hydroxy-5-(2-hydroxyacetamido)-2-(oct-7-yn-1-yloxy)tetrahydro-2H-pyran-2-carboxylic acid] | > 6.00 | > 6.00 | > 6.00
C#CCCOc1ccc(CO[C@]2(C(=O)O)C[C@H](O)[C@@H](NC(=O)CO)[C@H]([C@H](O)[C@H](O)CNC(=O)Cc3cccc(-c4ccccc4O)c3)O2)cc1 [Compound 46, (2R,4S,5R,6R)-2-((4-(but-3-yn-1-yloxy)benzyl)oxy)-6-((1R,2R)-1,2-dihydroxy-3-(2-(2′-hydroxy-[1,1′-biphenyl]-3-yl)acetamido)propyl)-4-hydroxy-5-(2-hydroxyacetamido)tetrahydro-2H-pyran-2-carboxylic acid] | 5.00 to 6.00 | > 6.00 | 5.00 to 6.00
C#CCNc1c(NCCCCCCO[C@]2(C(=O)O)C[C@H](O)[C@@H](NC(=O)CO)[C@H]([C@H](O)[C@H](O)CNC(=O)Cc3ccc(Cl)cc3)O2)c(=O)c1=O [Compound 112, (2R,4S,5R,6R)-6-((1R,2R)-3-(2-(4-chlorophenyl)acetamido)-1,2-dihydroxypropyl)-2-((6-((3,4-dioxo-2-(prop-2-yn-1-ylamino)cyclobut-1-en-1-yl)amino)hexyl)oxy)-4-hydroxy-5-(2-hydroxyacetamido)tetrahydro-2H-pyran-2-carboxylic acid] | > 6.00 | > 6.00 | > 6.00
C#CCOc1ccc(CO[C@]2(C(=O)O)C[C@H](O)[C@@H](NC(=O)CO)[C@H]([C@H](O)[C@H](O)CNC(=O)Cc3ccc(O)cc3)O2)cc1 [Compound 146, (2R,4S,5R,6R)-6-((1R,2R)-1,2-dihydroxy-3-(2-(4-hydroxyphenyl)acetamido)propyl)-4-hydroxy-5-(2-hydroxyacetamido)-2-((4-(prop-2-yn-1-yloxy)benzyl)oxy)tetrahydro-2H-pyran-2-carboxylic acid] | 5.00 to 6.00 | 5.00 to 6.00 | > 6.00
C#CCOc1ccc(CO[C@]2(C(=O)O)C[C@H](O)[C@@H](NC(=O)CO)[C@H]([C@H](O)[C@H](O)CNC(=O)Cc3ccc(-c4ccc(O)cc4)cc3OC)O2)cc1 [Compound 51, (2R,4S,5R,6R)-6-((1R,2R)-1,2-dihydroxy-3-(2-(4′-hydroxy-3-methoxy-[1,1′-biphenyl]-4-yl)acetamido)propyl)-4-hydroxy-5-(2-hydroxyacetamido)-2-((4-(prop-2-yn-1-yloxy)benzyl)oxy)tetrahydro-2H-pyran-2-carboxylic acid] | > 6.00 | > 6.00 | 5.00 to 6.00
